According to patent US12012636B2, “Pulmonary hypertension biomarker” (NOVARTIS AG, priority 2014, dated 2024):

Test system: candidate biomarker gene transcripts (Ccl21, Col18a1, Cxcl12, Cxcl13, Dmp1, Frzb) in rat Hy/Su lungs
Experiment: Candidate biomarker mRNA levels (QPCR) in lung in the hypoxia/Sugen rat model of PH following treatment with Imatinib
Type: in vivo
Method: Sugen (250 mg; SU5416; Sigma-Aldrich®) was dissolved in vehicle (12.5 ml; 0.5% (wt/vol) carboxyl methylcellulose sodium, 0.9% (wt/vol) NaCl, 0.4% (vol/vol) polysorbate, 0.9% (vol/vol) benzyl alcohol in deionized water), sonicated for 15 min and then vortexed. On day 0, animals were anaesthetized, weighed and received Sugen 20 mg/kg by sub-cutaneous injection. […] Control animals remained in room air (21% O2) to serve as normoxic controls for the study. After 2 weeks, all animals were removed from the hypoxia chamber. At week 4, the animals were subjected to echocardiographic measurements under sevoflurane anaesthesia and monitored closely until fully recovered. Animals underwent RV catheterization for measurement of right ventricular pressure (RVP) under a mixture of ketamin and medetomidine anaesthesia. Following euthanasia by Schedule 1, the left lobe of the lung was removed, inflated and fixed in 10% formalin and embedded in paraffin for histological analysis. Lobes of the right lung were snap frozen for transcriptional profiling.
Frozen rat lung samples, collected in TT2 tissue bags (K Bioscience® Cat #520021) were crushed using the Covaris CryoPrep CP02. Total RNA from the crushed lung samples was extracted by RNeasy Mini kit according to the manufacturer's protocol (Qiagen™). Genomic DNA was removed by treatment with DNase I (Turbo DNase kit, Invitrogen). The exact quantification of RNA was determined with a NanoDrop ND-1000 spectrophotometer. RNA quality was assessed by analyzing 18S and 28S rRNAs by microfluidics-based electrophoresis on a 2100 Bioanalyzer (Agilent Technologies, Santa Clara, Calif.).
All animal procedures were conducted as described above.
In this study, following administration of an initial dose of Sugen on day 0 and a period of 14 days in a hypoxia chamber following, rats were administered 100 mg/kg of Imatinib or vehicle control daily for a further two weeks.
Following euthanasia by Schedule 1, the left lobe of the lung was removed, inflated and fixed in 10% formalin and embedded in paraffin for histological analysis, by airway inflation. Tissue sections (3 μm) were stained with antibodies against von Willebrand factor (vWF) and α-smooth muscle actin (α-SMA). Slides were examined using a DMLB and confocal microscope, digital camera, and IM50 imaging software (Leica Microsystems, London, UK). Small pulmonary vessels (10-100 μm diameter indicated by vWF staining) were assessed for degrees of circumferential α-SMA-positive staining indicative of muscularisation. Lobes of the right lung were snap frozen for candidate biomarker mRNA expression measurements. Total RNA was extracted and underwent quality control as mentioned in section above.
cDNA was synthesised using the High Capacity RNA-to-cDNA Kit (Invitrogen) according to the kit manufacturer's protocol. QPCR was performed on an ABI Prism 7900HT sequence detection system (Applied Biosystems, USA), using TaqMan Universal PCR Master Mix (Applied Biosystems). Taqman assays were purchased from Applied Biosystems®. Relative expression was normalised to a combination of 10 different housekeeping genes. Data were analyzed using the SDS RQ Manager, software (Applied Biosystems, version 2.4). Normalised gene expression values for each gene (2^−Δct) were plotted and analysed using a two-way ANOVA in GraphPad Prism 6.02.

[1] = rat Hy/Su lungs, Imatinib 100 mg/kg daily for two weeks vs vehicle, QPCR

Compound: Cc1ccc(NC(=O)c2ccc(CN3CCN(C)CC3)cc2)cc1Nc1nccc(-c2cccnc2)n1 [Imatinib]
- CCL21 mRNA expression levels in lung samples (day 28, imatinib group vs vehicle treated animals (increased vs naïve controls)): decrease
- Ccl21 gene transcript in lung [1]: down-regulated
- Col18a1 gene transcript in lung [1]: down-regulated
- Cxcl12 gene transcript in lung [1]: down-regulated
- Cxcl13 gene transcript in lung [1]: down-regulated
- Dmp1 gene transcript in lung [1]: down-regulated
- Frzb gene transcript in lung [1]: down-regulated
